Calls of active or inactive are those of the source. No rule for the calls is given here.
System: rodent carcinogenicity bioassays, tumor incidence
Assay: CCRIS carcinogenicity studies
Conditions: Dose: 0
Procedure, shortened: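 Archive of carcinogenicity, mutagenicity, tumor promotion and tumor inhibition results drawn from journals, NCI reports and other sources, expert-reviewed; covers 1985-2011 and is no longer updated.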

Structure (SMILES)	carcinogen call (Species: RAT, Strain/Sex: STRAIN-CD/FEMALE, Route: INTRAPERITONEAL, 67 UMOL/KG BW IN DMSO 3/WK FOR 4 WK (STUDY DURATION: 61 WK))	carcinogen call (Species: RAT, Strain/Sex: STRAIN-CD/FEMALE, Route: INTRAPERITONEAL, 67 UMOL/KG/BW IN 25 UMOL/ML DMSO 3/WK FOR 4 WK (TOTAL DOSE: 0; 119 UMOL) ADMINISTERED TO WEANLING RATS (STUDY DURATIO, 67 UMOL/KG/BW IN 25 UMOL/ML DMSO 3/WK FOR 4 WK (TOTAL DOSE: 0; 119 UMOL) ADMINISTERED TO WEANLING RATS (STUDY DURATIO)	carcinogen call (Species: HAMSTER, Strain/Sex: SYRIAN/FEMALE, Route: INTRAGASTRIC, 36 MG/ML CORN OIL/ETHYL ACETATE (2:1) SOLUTION ADMINISTERED AS 0.2 ML 1/WK FOR 61 WK (STUDY DURATION: 106 WK), Tumor Site: Type of Lesion: NASAL CAVITY: ADENOMA, ESOPHAGUS: CARCINOMA, PAPILLOMA)	carcinogen call (Species: HAMSTER, Strain/Sex: SYRIAN/MALE, Route: INTRAGASTRIC, 36 MG/ML CORN OIL/ETHYL ACETATE (2:1) SOLUTION ADMINISTERED AS 0.2 ML 1/WK FOR 61 WK (STUDY DURATION: 106 WK), Tumor Site: Type of Lesion: NASAL CAVITY: ADENOMA, CARCINOMA, LIVER: HEPATOCELLULAR TUMOR)	carcinogen call (Species: RAT, Strain/Sex: F344/FEMALE, Route: GAVAGE, 14, MG/WK FOR A TOTAL DOSE OF 2.2 MMOL (STUDY DURATION: 40 WK), 14, MG/WK FOR A TOTAL DOSE OF 2.2 MMOL (STUDY DURATION: 40 WK), Tumor Site: Type of Lesion: ESOPHAGUS: TUMOR, NASAL MUCOSA: TUMOR)	carcinogen call (Species: RAT, Strain/Sex: F344/FEMALE, Route: INTRAGASTRIC, 36 MG/ML CORN OIL/ETHYL ACETATE (2:1) SOLUTION ADMINISTERED AS 0.2 ML 2/WK FOR 20 WK (STUDY DURATION: 38 WK), Tumor Site: Type of Lesion: NASAL CAVITY: ADENOMA, ESOPHAGUS: CARCINOMA, PAPILLOMA)	carcinogen call (Species: RAT, Strain/Sex: F344/FEMALE, Route: INTRAVESICULAR, 7 MG IN 0.2 ML ETHANOL: DEIONIZED WATER (1:3) 2/WK FOR 23 WK (TOTAL DOSE 2.5 NMOL) (STUDY DURATION: LIFESPAN), Tumor Site: Type of Lesion: ESOPHAGUS: TUMOR, NASAL MUCOSA: TUMOR)	carcinogen call (Species: RAT, Strain/Sex: F344/MALE, Route: GAVAGE, 14 MG/WK FOR A TOTAL DOSE OF 2.2 MMOL (STUDY DURATION: 40 WK), Tumor Site: Type of Lesion: ESOPHAGUS: TUMOR, NASAL MUCOSA: TUMOR)	carcinogen call (Species: RAT, Strain/Sex: F344/MALE, Route: INTRAGASTRIC, 36 MG/ML CORN OIL/ETHYL ACETATE (2:1) SOLUTION ADMINISTERED AS 0.2 ML 2/WK FOR 20 WK (STUDY DURATION: 38 WK), Tumor Site: Type of Lesion: NASAL CAVITY: ADENOMA, CARCINOMA, ESOPHAGUS: CARCINOMA, PAPILLOMA)	carcinogen call (Species: RAT, Strain/Sex: F344/MALE, Route: ORAL, 144 MG/L DEIONIZED DRINKING WATER ADMINISTERED AS 80 ML/WK FOR 20 WK (STUDY DURATION: 38 WK), Tumor Site: Type of Lesion: NASAL CAVITY: ADENOMA, ESOPHAGUS: CARCINOMA, PAPILLOMA)
CC(=O)Nc1ccc2ccc3cccc4ccc1c2c34	inactive; negative	inactive; negative	–	–	–	–	–	–	–	–
CN(C)CCN(C)N=O	–	–	active; positive	active; positive	active; positive	active; positive	active; positive	active; positive	active; positive	active; positive

— PubChem BioAssay AID1259411 (Chemical Carcinogenesis Research Information System (CCRIS), 2018)
